# Legend:
# [1] = molecular target: T1, hERG potassium channel (Kv 11.1) (Homo sapiens, UniProt Q12809); experiment: Radioligand binding assay, hERG potassium channel; conditions: antagonist 1 μM, read-out: Mean% inhibition (N = 2) of radioligand binding
# T1 construct: Eurofins Scientific, Inc
# Experimental: (§1) Binding assays were conducted to evaluate the affinity of test compounds IEM-1460 and IEM-1925 (Eurofins Scientific, Inc.) for 15 targets: the human alpha-1 adrenergic (A1) receptor, histaminergic (H)-2 and−3 receptors, and muscarinic acetylcholine receptors-1 to−5 in transfected CHO cells by radioligand binding. The neuronal α4β2 and neuronal α7 cholinergic acetylcholine receptors were tested in transfected SH-SY5Y cells. The histaminergic-1 and−4 receptors were tested in transfected HEK-293 cells. Ion channel testing for AMPA and N-methyl-D-aspartate (NMDA) was performed in cells from the rat cerebral cortex. […] Non-specific binding was determined in the presence of 1 μM of DCPX. […] The filters were dried and then counted for radioactivity in a scintillation counter (Topcount, Packard) using a scintillation cocktail (Microscint 0, Packard). The results are expressed as a percent inhibition of the control radioligand specific binding: 100-[(measured specific binding)/(control specific binding) × 100]. […]
# (§2) We tested the metabolic stability of the compounds with in vitro liver microsome stability assays (Table 1, right). […] We evaluated the compounds for potential toxicity with assays that test for inhibition of off-target ion channels and receptors. […]
# [2] = molecular target: T2, nAChR alpha7 (Homo sapiens, UniProt P36544); experiment: Radioligand binding assay, neuronal α7 nicotinic receptor (transfected SH-SY5Y cells); conditions: antagonist 1 μM
# T2 construct: host or cells: SH-SY5Y cells
# T2 sequence (P36544 23-502): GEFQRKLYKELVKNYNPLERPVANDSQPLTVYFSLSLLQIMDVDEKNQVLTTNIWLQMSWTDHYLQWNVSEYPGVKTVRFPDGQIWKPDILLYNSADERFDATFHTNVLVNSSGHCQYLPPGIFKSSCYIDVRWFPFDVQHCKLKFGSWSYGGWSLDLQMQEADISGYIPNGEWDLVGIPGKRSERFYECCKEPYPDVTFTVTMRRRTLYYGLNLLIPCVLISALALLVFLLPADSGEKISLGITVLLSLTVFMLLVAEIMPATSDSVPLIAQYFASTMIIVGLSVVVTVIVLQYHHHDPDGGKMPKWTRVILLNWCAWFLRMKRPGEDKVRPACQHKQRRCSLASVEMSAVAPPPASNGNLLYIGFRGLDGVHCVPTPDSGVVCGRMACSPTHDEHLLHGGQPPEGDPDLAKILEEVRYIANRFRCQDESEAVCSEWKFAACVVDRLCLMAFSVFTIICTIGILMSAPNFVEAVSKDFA
# Experimental: as §1, §2
# [3] = molecular target: T3, nAChR alpha4/beta2 (Homo sapiens, UniProt P17787+P43681); experiment: Radioligand binding assay, neuronal α4β2 nicotinic receptor (transfected SH-SY5Y cells); conditions: antagonist 1 μM
# T3 construct: host or cells: SH-SY5Y cells
# T3 sequence (P43681 29-627 limits assumed): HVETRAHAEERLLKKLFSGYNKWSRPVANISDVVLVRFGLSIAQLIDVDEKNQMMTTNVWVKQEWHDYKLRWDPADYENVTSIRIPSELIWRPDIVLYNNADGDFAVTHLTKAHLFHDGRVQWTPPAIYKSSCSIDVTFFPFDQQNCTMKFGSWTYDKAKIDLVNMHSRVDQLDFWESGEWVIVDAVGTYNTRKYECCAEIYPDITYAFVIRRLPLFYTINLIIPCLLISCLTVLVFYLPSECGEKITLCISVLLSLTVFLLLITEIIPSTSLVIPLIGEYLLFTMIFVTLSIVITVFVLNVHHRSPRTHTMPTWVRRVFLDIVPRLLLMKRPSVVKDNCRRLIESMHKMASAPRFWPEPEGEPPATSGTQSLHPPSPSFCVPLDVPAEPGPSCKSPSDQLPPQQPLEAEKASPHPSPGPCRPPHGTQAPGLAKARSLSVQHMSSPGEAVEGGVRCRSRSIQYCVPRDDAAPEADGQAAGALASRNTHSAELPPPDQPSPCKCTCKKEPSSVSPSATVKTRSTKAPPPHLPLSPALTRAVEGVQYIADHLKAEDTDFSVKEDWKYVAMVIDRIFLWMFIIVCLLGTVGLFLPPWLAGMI
# T3 sequence (P17787 26-502): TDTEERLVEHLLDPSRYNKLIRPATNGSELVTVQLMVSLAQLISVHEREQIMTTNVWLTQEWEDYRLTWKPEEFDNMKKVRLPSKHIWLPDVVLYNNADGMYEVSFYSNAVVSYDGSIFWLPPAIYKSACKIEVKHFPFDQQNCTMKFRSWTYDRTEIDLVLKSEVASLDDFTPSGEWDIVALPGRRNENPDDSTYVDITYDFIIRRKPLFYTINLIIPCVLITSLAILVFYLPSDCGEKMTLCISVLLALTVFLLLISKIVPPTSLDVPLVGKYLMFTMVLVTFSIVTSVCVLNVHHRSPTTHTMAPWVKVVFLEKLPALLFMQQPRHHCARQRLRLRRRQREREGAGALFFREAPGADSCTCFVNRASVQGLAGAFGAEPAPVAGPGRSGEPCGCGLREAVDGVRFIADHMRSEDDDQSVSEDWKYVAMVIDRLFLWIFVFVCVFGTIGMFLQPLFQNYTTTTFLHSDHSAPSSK
# Experimental: as §1, §2
# [4] = molecular target: T4, M4 acetylcholine GPCR (Homo sapiens, UniProt P08173); experiment: Radioligand binding assay, M4 receptor (transfected CHO cells); conditions: antagonist 1 μM
# T4 construct: host or cells: CHO cells
# T4 sequence (P08173 whole entry): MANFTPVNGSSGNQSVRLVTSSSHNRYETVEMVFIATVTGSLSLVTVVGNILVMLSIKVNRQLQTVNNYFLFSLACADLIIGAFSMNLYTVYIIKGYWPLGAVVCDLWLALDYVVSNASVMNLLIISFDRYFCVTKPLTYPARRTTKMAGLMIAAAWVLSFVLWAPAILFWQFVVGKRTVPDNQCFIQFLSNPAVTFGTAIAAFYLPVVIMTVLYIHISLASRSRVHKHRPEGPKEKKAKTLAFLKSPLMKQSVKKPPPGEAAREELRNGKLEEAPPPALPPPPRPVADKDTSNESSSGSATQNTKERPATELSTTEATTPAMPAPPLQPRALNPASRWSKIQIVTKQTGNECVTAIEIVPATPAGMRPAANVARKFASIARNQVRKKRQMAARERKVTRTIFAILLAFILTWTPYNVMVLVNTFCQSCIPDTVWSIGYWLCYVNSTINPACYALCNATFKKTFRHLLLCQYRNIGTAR
# Experimental: as §1, §2
# [5] = molecular target: T5, M1 acetylcholine GPCR (Homo sapiens, UniProt P11229); experiment: Radioligand binding assay, M1 receptor (transfected CHO cells); conditions: antagonist 1 μM
# T5 construct: host or cells: CHO cells
# T5 sequence (P11229 whole entry): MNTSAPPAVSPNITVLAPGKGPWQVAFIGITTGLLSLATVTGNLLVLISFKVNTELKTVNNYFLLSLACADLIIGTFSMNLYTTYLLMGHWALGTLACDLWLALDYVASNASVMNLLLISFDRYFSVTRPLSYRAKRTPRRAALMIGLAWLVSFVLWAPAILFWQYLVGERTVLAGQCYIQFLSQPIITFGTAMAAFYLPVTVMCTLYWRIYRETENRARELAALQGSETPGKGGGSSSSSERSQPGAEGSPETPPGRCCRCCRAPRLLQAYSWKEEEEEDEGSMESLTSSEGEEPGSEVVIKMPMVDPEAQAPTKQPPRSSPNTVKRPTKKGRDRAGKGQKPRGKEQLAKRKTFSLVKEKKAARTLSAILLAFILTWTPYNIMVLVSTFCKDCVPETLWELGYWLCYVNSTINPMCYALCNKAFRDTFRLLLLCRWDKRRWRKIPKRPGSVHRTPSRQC
# Experimental: as §1, §2
# [6] = In vitro microsomal stability assay, human; format: in vitro ADME; conditions: pH 7.4; human liver microsomes, 1 μM compound, 37°C; read-out: Half-life (min) Mean (N = 2)
# Experimental: (§3) The stability of IEM-1460 in the presence of guinea pig liver microsomes (BioIVT, PN: X008070) or IEM-1925 in the presence of human (BioIVT, PN: M00101), mouse, or guinea pig liver microsomes was evaluated (Paraza Pharma, Inc., Montreal, Quebec, Canada). Both IEM-1925 and IEM-1460 were incubated with microsomes at 37°C for a total of 45 min. Working solutions were prepared in 100 mM potassium phosphate buffer and the final reaction was performed at pH 7.4 in 100 mM potassium phosphate buffer containing 0.5 mg/mL liver microsomal protein. Phase I metabolism was assessed by adding NADPH to a final concentration of 1 mM and collecting samples at time points 0, 5, 15, 30, and 45 min. All collected samples were quenched 1:1 with ice-cold stop solution (1 μM labetalol and 1 μM glyburide in acetonitrile) and centrifuged to remove precipitated protein. […] Samples were analyzed by LC-MS/MS using a Thermo Vanquish UPLC and a Thermo Quantis triple quadrupole mass spectrometer. […] Reference compounds were also assessed to ensure accuracy and precision of experimental protocol: imipramine and verapamil for human liver microsomes, diphenhydramine and verapamil for mouse liver microsomes, and warfarin and verapamil for guinea pig liver microsomes. […] Half-life was determined from a plot of the natural logarithm of the peak area ratio (remaining compound peak area/internal standard peak area) against time. […]
# [7] = system: pyramidal cells (expressing mainly GluA2-containing CI-AMPARs); design: method as in Tikhonov et al., 2000; conditions: rat hippocampus ref Tikhonov et al., 2000; cited from earlier work
# [8] = molecular target: T6, H3 histamine GPCR (Homo sapiens, UniProt Q9Y5N1); experiment: Radioligand binding assay, H3 receptor (transfected CHO cells); conditions: antagonist 1 μM
# T6 construct: host or cells: CHO cells
# T6 sequence (Q9Y5N1 whole entry): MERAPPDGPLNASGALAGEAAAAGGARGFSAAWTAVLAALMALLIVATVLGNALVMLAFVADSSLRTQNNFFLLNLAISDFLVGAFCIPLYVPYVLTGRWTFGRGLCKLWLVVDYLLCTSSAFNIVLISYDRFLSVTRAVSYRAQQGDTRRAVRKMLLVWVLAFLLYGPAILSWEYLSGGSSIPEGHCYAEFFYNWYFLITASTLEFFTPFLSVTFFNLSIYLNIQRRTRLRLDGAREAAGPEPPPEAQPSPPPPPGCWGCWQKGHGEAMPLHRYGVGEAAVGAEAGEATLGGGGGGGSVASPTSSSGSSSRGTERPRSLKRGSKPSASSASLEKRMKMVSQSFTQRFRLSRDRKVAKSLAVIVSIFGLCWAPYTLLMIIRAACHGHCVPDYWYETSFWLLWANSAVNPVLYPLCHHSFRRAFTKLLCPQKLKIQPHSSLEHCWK
# Experimental: as §1, §2
# [9] = In vitro microsomal stability assay, guinea pig; format: in vitro ADME; conditions: pH 7.4; guinea pig liver microsomes, 1 μM compound, 37°C; read-out: Half-life (min) Mean (N = 2)
# Experimental: as §3
# [10] = molecular target: T7, H4 histamine GPCR (Homo sapiens, UniProt Q9H3N8); experiment: Radioligand binding assay, H4 receptor (transfected HEK-293 cells); conditions: antagonist 1 μM
# T7 construct: host or cells: HEK-293 cells
# T7 sequence (Q9H3N8 whole entry): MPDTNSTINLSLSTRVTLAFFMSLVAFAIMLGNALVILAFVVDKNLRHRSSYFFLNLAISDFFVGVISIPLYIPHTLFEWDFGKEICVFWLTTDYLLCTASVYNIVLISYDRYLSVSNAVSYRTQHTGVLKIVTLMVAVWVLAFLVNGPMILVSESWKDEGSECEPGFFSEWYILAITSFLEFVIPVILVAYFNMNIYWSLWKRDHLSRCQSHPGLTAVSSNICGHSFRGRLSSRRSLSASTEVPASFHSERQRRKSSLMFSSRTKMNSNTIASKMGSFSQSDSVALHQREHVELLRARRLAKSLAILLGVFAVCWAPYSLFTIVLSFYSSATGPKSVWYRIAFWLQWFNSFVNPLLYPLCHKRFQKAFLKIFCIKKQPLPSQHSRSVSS
# Experimental: as §1, §2
# [11] = system: NMDA glutamate; experiment: Radioligand binding assay, NMDA receptor (rat cerebral cortex); conditions: antagonist 1 μM
# Experimental: as §1, §2
# [12] = Metabolic stability in vitro as summarised in the abstract (species not given); format: in vitro ADME; conditions: mouse, guinea pig, human, liver microsomes, pH 7.4
# Experimental: The stability of IEM-1460 in the presence of guinea pig liver microsomes (BioIVT, PN: X008070) or IEM-1925 in the presence of human (BioIVT, PN: M00101), mouse, or guinea pig liver microsomes was evaluated (Paraza Pharma, Inc., Montreal, Quebec, Canada). Both IEM-1925 and IEM-1460 were incubated with microsomes at 37°C for a total of 45 min. Working solutions were prepared in 100 mM potassium phosphate buffer and the final reaction was performed at pH 7.4 in 100 mM potassium phosphate buffer containing 0.5 mg/mL liver microsomal protein. Phase I metabolism was assessed by adding NADPH to a final concentration of 1 mM and collecting samples at time points 0, 5, 15, 30, and 45 min. All collected samples were quenched 1:1 with ice-cold stop solution (1 μM labetalol and 1 μM glyburide in acetonitrile) and centrifuged to remove precipitated protein. […] Samples were analyzed by LC-MS/MS using a Thermo Vanquish UPLC and a Thermo Quantis triple quadrupole mass spectrometer. […] Reference compounds were also assessed to ensure accuracy and precision of experimental protocol: imipramine and verapamil for human liver microsomes, diphenhydramine and verapamil for mouse liver microsomes, and warfarin and verapamil for guinea pig liver microsomes. […] Half-life was determined from a plot of the natural logarithm of the peak area ratio (remaining compound peak area/internal standard peak area) against time.
# T1 sequence (Q12809 whole entry): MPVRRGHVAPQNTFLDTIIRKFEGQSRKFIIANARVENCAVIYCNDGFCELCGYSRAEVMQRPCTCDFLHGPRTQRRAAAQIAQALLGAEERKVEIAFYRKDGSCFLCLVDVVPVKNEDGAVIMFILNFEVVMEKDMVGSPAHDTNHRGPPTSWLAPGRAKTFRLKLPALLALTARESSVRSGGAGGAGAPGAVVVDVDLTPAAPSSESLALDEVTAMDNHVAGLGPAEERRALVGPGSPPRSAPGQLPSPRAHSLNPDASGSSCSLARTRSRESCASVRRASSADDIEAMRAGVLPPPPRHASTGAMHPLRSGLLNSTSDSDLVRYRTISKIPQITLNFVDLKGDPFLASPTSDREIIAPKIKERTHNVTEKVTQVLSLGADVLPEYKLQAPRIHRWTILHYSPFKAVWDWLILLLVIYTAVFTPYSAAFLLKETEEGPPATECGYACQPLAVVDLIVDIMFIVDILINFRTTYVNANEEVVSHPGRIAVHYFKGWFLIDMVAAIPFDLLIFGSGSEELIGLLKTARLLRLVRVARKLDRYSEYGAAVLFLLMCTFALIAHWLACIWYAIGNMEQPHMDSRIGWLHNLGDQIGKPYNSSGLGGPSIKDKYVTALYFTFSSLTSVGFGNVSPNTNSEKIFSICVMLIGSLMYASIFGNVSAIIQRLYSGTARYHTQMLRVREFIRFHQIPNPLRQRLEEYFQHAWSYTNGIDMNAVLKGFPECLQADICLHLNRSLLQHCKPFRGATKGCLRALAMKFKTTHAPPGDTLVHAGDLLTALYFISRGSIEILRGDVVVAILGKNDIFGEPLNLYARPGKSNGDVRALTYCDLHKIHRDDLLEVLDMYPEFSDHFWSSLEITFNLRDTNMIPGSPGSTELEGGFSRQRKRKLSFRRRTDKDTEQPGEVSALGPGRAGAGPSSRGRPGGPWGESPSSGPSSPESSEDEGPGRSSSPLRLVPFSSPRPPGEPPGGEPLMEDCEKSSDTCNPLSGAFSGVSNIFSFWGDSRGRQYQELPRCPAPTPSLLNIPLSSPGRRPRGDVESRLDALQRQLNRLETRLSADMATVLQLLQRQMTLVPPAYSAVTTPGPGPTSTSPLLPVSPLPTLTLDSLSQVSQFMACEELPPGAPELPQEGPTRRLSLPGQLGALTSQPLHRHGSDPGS
Compound,inhibition at 1 μM [1] [%],Mean% inhibition (N = 2) of radioligand binding [2] [%],Mean% inhibition (N = 2) of radioligand binding [3] [%],Mean% inhibition (N = 2) of radioligand binding [4] [%],Mean% inhibition (N = 2) of radioligand binding [5] [%],half-life at 1 μM [6] [min],IC50 [7] [µM],Mean% inhibition (N = 2) of radioligand binding [8] [%],half-life at 1 μM [9] [min],Mean% inhibition (N = 2) of radioligand binding [10] [%],Mean% inhibition (N = 2) of radioligand binding [11] [%],half-life [12] [h]
C[N+](C)(C)CCCCCNCC12CC3CC(CC(C3)C1)C2 [IEM-1460],< 5,<1,<1,37,<1,> 300,> 500,<1,> 300,<1,<1,> 5
NCCCCCNC1(c2ccccc2)CCCCC1 [IEM-1925],< 1,<2,<1,19,<1,> 300,> 200,<5,> 300,<5,<1,> 5
